# Results as given in patent US20090312521A1 (priority 2004, published 2009).
# Non-standard residues stand in square brackets, D forms with d. Residues, ends and D or L forms follow the SMILES beside them. β3hY = N[C@H](CC(=O)O)Cc1ccc(O)cc1; NMeS = CN[C@@H](CO)C(=O)O; β3hS = N[C@@H](CO)CC(=O)O; Ava = NCCCCC(=O)O; GABA = NCCCC(=O)O
# Tested on: E. coli ATCC 11775
# Assay type: cell-based
# Settings: ATCC 11775, 24 h
# Description: Lyophilized peptides were dissolved in NB to give a concentration of 400 μM and filtered using 0.22 μm filter discs (Millex GV, Durapore). An overnight culture in NB was adjusted to 5×10^6 CFU/mL and inoculated into the micro titer plate wells (10 μL) containing each 100 μL of a serial 2-fold dilution (200-0.4 μM) of the tested peptide in NB. Plates were incubated while gently shaking at 37 ° C. for 24 h. Next, 80 μL suspension of each well was transported into a flat-bottom 96-well plate (Costar). The absorbance was measured at 600 nm using a μQuant micro plate spectrophotometer (Bio-Tek Instruments). All peptides were measured in quadruplo. The peptide with sequence […] (see Otvos Jr, […]; Otvos, B. I.; Hoffmann, […].; Wade, […].; Bulet, P. Protein Sci. 2000, 9, 742) was used as negative control.
row,Structure (SMILES),MIC
1,"CC[C@H](C)[C@H](NC(=O)[C@@H]1CCCN1C(=O)[C@H](CCCNC(=N)N)NC(=O)[C@@H]1CCCN1C(=O)[C@H](Cc1c[nH]cn1)NC(=O)[C@H](CO)NC(=O)[C@@H](NC(=O)[C@@H]1CCCN1C(=O)[C@H](CCCNC(=N)N)NC(=O)[C@@H]1CCCN1C(=O)[C@@H](NC(=O)[C@H](Cc1ccc(O)cc1)NC(=O)[C@@H]1CCCN1C(=O)[C@H](CCCNC(=N)N)NC(=O)[C@@H]1CCCN1C(=O)[C@H](CCCCN)NC(=O)CCCN)[C@@H](C)O)[C@@H](C)O)C(=O)N[C@@H](CCCNC(=N)N)C(=O)N[C@H](C(=O)O)C(C)C [Peptide 13, AbuKPRP YTPRP TSHPR PIRV] (H-[GABA]KPRPYTPRPTSHPRPIRV-OH; N-terminus assumed)",6.3 µM
2,"CC[C@H](C)[C@H](NC(=O)[C@@H]1CCCN1C(=O)[C@H](CCCNC(=N)N)NC(=O)[C@@H]1CCCN1C(=O)[C@H](Cc1c[nH]cn1)NC(=O)[C@H](CO)NC(=O)[C@@H](NC(=O)[C@@H]1CCCN1C(=O)[C@H](CCCNC(=N)N)NC(=O)[C@@H]1CCCN1C(=O)[C@H](CO)N(C)C(=O)[C@H](Cc1ccc(O)cc1)NC(=O)[C@@H]1CCCN1C(=O)[C@H](CCCNC(=N)N)NC(=O)[C@@H]1CCCN1C(=O)[C@H](CCCCN)NC(=O)CN)[C@@H](C)O)C(=O)N[C@@H](CCCNC(=N)N)C(=O)N[C@H](C(=O)O)C(C)C [Peptide 2, GKPRP Y^MeSPRP TSHPR PIRV] (H-GKPRPY[NMeS]PRPTSHPRPIRV-OH)",25 µM
3,"CC[C@H](C)[C@H](NC(=O)[C@@H]1CCCN1C(=O)[C@H](CCCNC(=N)N)NC(=O)[C@@H]1CCCN1C(=O)[C@H](Cc1cnc[nH]1)NC(=O)[C@H](CO)NC(=O)[C@@H](NC(=O)[C@@H]1CCCN1C(=O)[C@H](CCCNC(=N)N)NC(=O)[C@@H]1CCCN1C(=O)[C@H](CO)NC(=O)[C@H](Cc1ccc(O)cc1)NC(=O)[C@@H]1CCCN1C(=O)[C@H](CCCNC(=N)N)NC(=O)[C@@H]1CCCN1C(=O)[C@H](CCCCN)NC(=O)CN)[C@@H](C)O)C(=O)N[C@@H](CCCNC(=N)N)C(=O)N[C@H](C(=O)O)C(C)C [Peptide 1, GKPRP YSPRP TSHPR PIRV, reference compound] (H-GKPRPYSPRPTSHPRPIRV-OH)",6.3 µM
4,"CC[C@H](C)[C@H](NC(=O)[C@@H]1CCCN1C(=O)[C@H](CCCNC(=N)N)NC(=O)[C@@H]1CCCN1C(=O)[C@H](Cc1c[nH]cn1)NC(=O)[C@H](CO)NC(=O)[C@@H](NC(=O)[C@@H]1CCCN1C(=O)[C@H](CCCNC(=N)N)NC(=O)[C@@H]1CCCN1C(=O)[C@@H](NC(=O)[C@H](Cc1ccccc1)NC(=O)[C@@H]1CCCN1C(=O)[C@H](CCCNC(=N)N)NC(=O)[C@@H]1CCCN1C(=O)[C@H](CCCCN)NC(=O)CN)[C@@H](C)O)[C@@H](C)O)C(=O)N[C@@H](CCCNC(=N)N)C(=O)N[C@H](C(=O)O)C(C)C [Peptide 5, GKPRP FTPRP TSHPR PIRV] (H-GKPRPFTPRPTSHPRPIRV-OH; N-terminus assumed)",3.1 µM
5,"CC[C@H](C)[C@H](NC(=O)[C@@H]1CCCN1C(=O)[C@H](CCCNC(=N)N)NC(=O)[C@@H]1CCCN1C(=O)[C@H](Cc1c[nH]cn1)NC(=O)[C@H](CO)NC(=O)[C@@H](NC(=O)[C@@H]1CCCN1C(=O)[C@H](CCCNC(=N)N)NC(=O)[C@@H]1CCCN1C(=O)C[C@H](CO)NC(=O)C[C@H](Cc1ccc(O)cc1)NC(=O)[C@@H]1CCCN1C(=O)[C@H](CCCNC(=N)N)NC(=O)[C@@H]1CCCN1C(=O)[C@H](CCCCN)NC(=O)CN)[C@@H](C)O)C(=O)N[C@@H](CCCNC(=N)N)C(=O)N[C@H](C(=O)O)C(C)C [Peptide 11, GKPRP βYβSPRP TSHPR PIRV] (H-GKPRP[β3hY][β3hS]PRPTSHPRPIRV-OH)",12.5 µM
6,"CC[C@H](C)[C@H](NC(=O)[C@@H]1CCCN1C(=O)[C@H](CCCNC(=N)N)NC(=O)[C@@H]1CCCN1C(=O)[C@H](Cc1c[nH]cn1)NC(=O)[C@H](CO)NC(=O)[C@@H](NC(=O)[C@@H]1CCCN1C(=O)[C@H](CCCNC(=N)N)NC(=O)[C@@H]1CCCN1C(=O)[C@@H](NC(=O)[C@H](Cc1ccc(O)cc1)NC(=O)[C@@H]1CCCN1C(=O)[C@H](CCCNC(=N)N)NC(=O)[C@@H]1CCCN1C(=O)[C@H](CCCCN)NC(=O)CCCCN)[C@@H](C)O)[C@@H](C)O)C(=O)N[C@@H](CCCNC(=N)N)C(=O)N[C@H](C(=O)O)C(C)C [Peptide 12, AvaKPRP YTPRP TSHPR PIRV] (H-[Ava]KPRPYTPRPTSHPRPIRV-OH; N-terminus assumed)",6.3 µM

# Continued, values first:
row,MIC,Structure (SMILES)
1,6.3 µM,"CC[C@H](C)[C@H](NC(=O)[C@@H]1CCCN1C(=O)[C@H](CCCNC(=N)N)NC(=O)[C@@H]1CCCN1C(=O)[C@H](Cc1c[nH]cn1)NC(=O)[C@H](CO)NC(=O)[C@@H](NC(=O)[C@@H]1CCCN1C(=O)[C@H](CCCNC(=N)N)NC(=O)[C@@H]1CCCN1C(=O)[C@H](CO)NC(=O)[C@@H](Cc1ccc(O)cc1)NC(=O)[C@@H]1CCCN1C(=O)[C@H](CCCNC(=N)N)NC(=O)[C@@H]1CCCN1C(=O)[C@H](CCCCN)NC(=O)CN)[C@@H](C)O)C(=O)N[C@@H](CCCNC(=N)N)C(=O)N[C@H](C(=O)O)C(C)C [Peptide 6, GKPRP DYSPRP TSHPR PIRV] (H-GKPRP[dY]SPRPTSHPRPIRV-OH; N-terminus assumed)"
2,3.1 µM,"CC[C@H](C)[C@H](NC(=O)[C@@H]1CCCN1C(=O)[C@H](CCCNC(=N)N)NC(=O)[C@@H]1CCCN1C(=O)[C@H](Cc1c[nH]cn1)NC(=O)[C@H](CO)NC(=O)[C@@H](NC(=O)[C@@H]1CCCN1C(=O)[C@H](CCCNC(=N)N)NC(=O)[C@@H]1CCCN1C(=O)[C@H](CO)NC(=O)[C@H](Cc1ccccc1)NC(=O)[C@@H]1CCCN1C(=O)[C@H](CCCNC(=N)N)NC(=O)[C@@H]1CCCN1C(=O)[C@H](CCCCN)NC(=O)CN)[C@@H](C)O)C(=O)N[C@@H](CCCNC(=N)N)C(=O)N[C@H](C(=O)O)C(C)C [Peptide 3, GKPRP FSPRP TSHPR PIRV] (H-GKPRPFSPRPTSHPRPIRV-OH; N-terminus assumed)"
3,3.1 µM,"CC[C@H](C)[C@H](NC(=O)[C@@H]1CCCN1C(=O)[C@H](CCCNC(=N)N)NC(=O)[C@@H]1CCCN1C(=O)[C@H](Cc1c[nH]cn1)NC(=O)[C@H](CO)NC(=O)[C@@H](NC(=O)[C@@H]1CCCN1C(=O)[C@H](CCCNC(=N)N)NC(=O)[C@@H]1CCCN1C(=O)C[C@H](CO)NC(=O)[C@H](Cc1ccc(O)cc1)NC(=O)[C@@H]1CCCN1C(=O)[C@H](CCCNC(=N)N)NC(=O)[C@@H]1CCCN1C(=O)[C@H](CCCCN)NC(=O)CN)[C@@H](C)O)C(=O)N[C@@H](CCCNC(=N)N)C(=O)N[C@H](C(=O)O)C(C)C [Peptide 10, GKPRP YβSPRP TSHPR PIRV] (H-GKPRPY[β3hS]PRPTSHPRPIRV-OH)"
4,3.1 µM,"CC[C@H](C)[C@H](NC(=O)[C@@H]1CCCN1C(=O)[C@H](CCCNC(=N)N)NC(=O)[C@@H]1CCCN1C(=O)[C@H](Cc1c[nH]cn1)NC(=O)[C@H](CO)NC(=O)[C@@H](NC(=O)[C@@H]1CCCN1C(=O)[C@H](CCCNC(=N)N)NC(=O)[C@@H]1CCCN1C(=O)[C@H](CO)NC(=O)C[C@H](Cc1ccc(O)cc1)NC(=O)[C@@H]1CCCN1C(=O)[C@H](CCCNC(=N)N)NC(=O)[C@@H]1CCCN1C(=O)[C@H](CCCCN)NC(=O)CN)[C@@H](C)O)C(=O)N[C@@H](CCCNC(=N)N)C(=O)N[C@H](C(=O)O)C(C)C [Peptide 9, GKPRP βYSPRP TSHPR PIRV] (H-GKPRP[β3hY]SPRPTSHPRPIRV-OH)"
